Results: US7524861B2, “Process for the preparation of a hydrate of an anthranilic acid derivative” (priority 2002, dated 2009)

Experiment: Dehydration/re-hydration study (weight change over desiccants, then 33-95% RH, KF water content)
Assay type: physicochemical
Details: for KF moisture result: dehydration/rehydration sample
Description: The hexahydrate produced in Example 1 was analysed as follows. Four desiccator cabinets were prepared to contain open dishes of the following saturated salt solutions, to achieve the following approximate relative humidities (RH).
Dehydration of samples was carried out by storing them over silica gel or over P2O5 at reduced pressure (65 mm Hg). All studies were performed at ambient laboratory temperature (15-22° C.).
During this study, samples were dispensed to pre-equilibrated weighing bottles as in the hygroscopicity study, and were then stored over silica gel without reduced pressure, then over […] under reduced pressure (65 mm Hg) to dehydrate the hydrate. Once a stable weight was achieved over P2O5, samples were re-hydrated by storing them at 33% RH to 95% RH, in parallel with the hygroscopicity study as described above.
Water contents were measured by coulometric KF (Karl Fischer) titration.

Cumulative % change Dehydration/Rehydration (75% RH, cumulative time 2441.25 h): 1.26% | Cumulative % change Dehydration/Rehydration (75% RH, cumulative time 2482.00 h): 1.23% | Cumulative % change Dehydration/Rehydration (75% RH, cumulative time 2577.75 h): 1.35% | Cumulative % change Dehydration/Rehydration (75% RH, cumulative time 2609.75 h): 1.38% | Cumulative % change Dehydration/Rehydration (75% RH, cumulative time 2681.25 h): 1.41% | Cumulative % change Dehydration/Rehydration (75% RH, cumulative time 2770.25 h): 1.36% | Cumulative % change Dehydration/Rehydration (75% RH, cumulative time 2817.75 h): 1.44% | Cumulative % change Dehydration/Rehydration (95% RH, cumulative time 2825.25 h): 2.28% | Cumulative % change Dehydration/Rehydration (95% RH, cumulative time 2841.75 h): 2.73% | Cumulative % change Dehydration/Rehydration (95% RH, cumulative time 2915.75 h): 3.06% | Cumulative % change Dehydration/Rehydration (95% RH, cumulative time 2937.75 h): 3.21% | Cumulative % change Dehydration/Rehydration (95% RH, cumulative time 2991.25 h): 3.25% | Cumulative % change Dehydration/Rehydration (95% RH, cumulative time 3082.25 h): 3.86% | Cumulative % change Dehydration/Rehydration (95% RH, cumulative time 3130.00 h): 4.12% | Cumulative % change Dehydration/Rehydration (95% RH, cumulative time 3182.25 h): 3.99% | Cumulative % change Dehydration/Rehydration (95% RH, cumulative time 3252.25 h): 4.19% | Cumulative % change Dehydration/Rehydration (95% RH, cumulative time 3350.25 h): 4.22% | Cumulative % change Dehydration/Rehydration (95% RH, cumulative time 3422.25 h): 4.35% | Cumulative % change Dehydration/Rehydration (95% RH, cumulative time 3636.25 h): 5.31% | Cumulative % change Dehydration/Rehydration (95% RH, cumulative time 4332.75 h): 5.58% | Cumulative % change Dehydration/Rehydration (P2O5 with vacuum, cumulative time 425.00 h): −10.85% | Cumulative % change Dehydration/Rehydration (P2O5 with vacuum, cumulative time 452.00 h): −11.00% | Cumulative % change Dehydration/Rehydration (P2O5 with vacuum, cumulative time 476.75 h): −11.19% | Cumulative % change Dehydration/Rehydration (P2O5 with vacuum, cumulative time 570.25 h): −11.43% | Cumulative % change Dehydration/Rehydration (P2O5 with vacuum, cumulative time 641.00 h): −11.35% | Cumulative % change Dehydration/Rehydration (P2O5 with vacuum, cumulative time 760.50 h): −11.51% | Cumulative % change Dehydration/Rehydration (P2O5 with vacuum, cumulative time 904.25 h): −11.46% | Cumulative % change Dehydration/Rehydration (P2O5 with vacuum, cumulative time 1071.00 h): −11.54% | Cumulative % change Dehydration/Rehydration (P2O5 with vacuum, cumulative time 1144.00 h): −11.48% | initial water content of the sample (before dehydration): 12.5% | notional water content after dehydration and re-hydration at 33% RH (corresponding to the net weight change): about 11.5% | net weight change after dehydration and re-hydration at 33% RH (dehydrated then re-hydrated at 33% RH): about −1% | final weight change on dehydration (dehydration over increasing desiccating conditions): −11.5% | KF moisture result (95% RH, cumulative time 4332.75 h (end)): (15.81) % w/w | KF moisture result (printed in first 33% RH row (1147.25 h), after dehydration over P2O5): (3.82) % w/w | KF moisture result (printed in first row (silica, no vacuum, 3.00 h), initial value before dehydration): (12.53) % w/w | Cumulative % change Dehydration/Rehydration (re-hydration at 33% RH, cumulative time 1147.25 h): −6.61% | Cumulative % change Dehydration/Rehydration (re-hydration at 33% RH, cumulative time 1150.75 h): −4.80% | Cumulative % change Dehydration/Rehydration (re-hydration at 33% RH, cumulative time 1168.00 h): −2.47% | Cumulative % change Dehydration/Rehydration (re-hydration at 33% RH, cumulative time 1240.75 h): −0.68% | Cumulative % change Dehydration/Rehydration (re-hydration at 33% RH, cumulative time 1268.50 h): −0.62% | Cumulative % change Dehydration/Rehydration (re-hydration at 33% RH, cumulative time 1312.50 h): −0.62% | Cumulative % change Dehydration/Rehydration (re-hydration at 33% RH, cumulative time 1431.25 h): −0.83% | Cumulative % change Dehydration/Rehydration (re-hydration at 33% RH, cumulative time 1502.25 h): −0.66% | Cumulative % change Dehydration/Rehydration (re-hydration at 33% RH, cumulative time 1672.50 h): −0.91% | Cumulative % change Dehydration/Rehydration (re-hydration at 33% RH, cumulative time 1741.50 h): −0.97% | Cumulative % change Dehydration/Rehydration (silica, no vacuum, cumulative time 3.00 h): −2.29% | Cumulative % change Dehydration/Rehydration (silica, no vacuum, cumulative time 8.50 h): −3.58% | Cumulative % change Dehydration/Rehydration (silica, no vacuum, cumulative time 24.50 h): −5.92% | Cumulative % change Dehydration/Rehydration (silica, no vacuum, cumulative time 30.50 h): −6.39% | Cumulative % change Dehydration/Rehydration (silica, no vacuum, cumulative time 56.00 h): −8.06% | Cumulative % change Dehydration/Rehydration (silica, no vacuum, cumulative time 80.00 h): −8.50% | Cumulative % change Dehydration/Rehydration (silica, no vacuum, cumulative time 237.50 h): −8.96% | Cumulative % change Dehydration/Rehydration (silica, no vacuum, cumulative time 288.50 h): −9.07% | Cumulative % change Dehydration/Rehydration (silica, with vacuum, cumulative time 308.00 h): −9.07% | Cumulative % change Dehydration/Rehydration (silica, with vacuum, cumulative time 401.00 h): −8.76%
Compound: COc1cc2c(cc1OC)CN(CCc1ccc(NC(=O)c3cc(OC)c(OC)cc3NC(=O)c3cnc4ccccc4c3)cc1)CC2 [Example 1, Quinoline-3-carboxylic acid (2-{4-[2-(6,7-dimethoxy-3,4-dihydro-1H-isoquinolin-2-yl)-ethyl]-phenylcarbamoyl}-4,5-dimethoxy-phenyl)-amide]
